# Assay results: patent US10316211B2, “Stabilizer and coating compositions thereof” (SWIMC LLC, priority 2012, dated 2019)
# Biological target: T1, human estrogen receptor (Homo sapiens, UniProt P03372)
# T1 sequence (P03372 1-595): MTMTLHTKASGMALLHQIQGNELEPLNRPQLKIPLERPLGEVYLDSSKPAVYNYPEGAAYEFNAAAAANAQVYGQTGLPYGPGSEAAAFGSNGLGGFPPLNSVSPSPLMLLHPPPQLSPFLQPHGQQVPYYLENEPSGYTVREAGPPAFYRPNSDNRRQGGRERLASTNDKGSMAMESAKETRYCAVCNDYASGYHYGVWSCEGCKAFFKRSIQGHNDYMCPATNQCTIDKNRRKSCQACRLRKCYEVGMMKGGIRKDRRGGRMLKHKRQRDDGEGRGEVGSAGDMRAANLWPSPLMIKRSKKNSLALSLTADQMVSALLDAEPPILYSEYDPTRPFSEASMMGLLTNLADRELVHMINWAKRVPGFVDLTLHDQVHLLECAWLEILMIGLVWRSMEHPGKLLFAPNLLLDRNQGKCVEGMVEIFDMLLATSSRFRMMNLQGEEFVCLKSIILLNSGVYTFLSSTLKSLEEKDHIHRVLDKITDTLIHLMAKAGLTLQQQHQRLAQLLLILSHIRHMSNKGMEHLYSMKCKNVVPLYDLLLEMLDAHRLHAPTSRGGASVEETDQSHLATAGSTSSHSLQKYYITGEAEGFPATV
# Assay: suitable in vitro assay whose results correlate with the MCF-7 assay (estrogenic activity)
# Conditions: in vitro assay correlated to MCF-7 assay through common reference compounds
row,SMILES,estrogenic activity
1,Cc1cc(Cc2cc(C)cc(C(C)(C)C)c2O)c(O)c(C(C)(C)C)c1 [Structure 9],do not exhibit appreciable estrogenic activity
2,"CC(C)(C)c1cc(O)c(C(C)(C)C)cc1O [Structure 12, 2,5-di-t-butylhydroquinone]",do not exhibit appreciable estrogenic activity
3,"Cc1cc(Cc2cc(C)c(O)c(C)c2)cc(C)c1O [Structure 6, 4,4′-methylenebis(2,6-dimethylphenol)]",do not exhibit appreciable estrogenic activity
4,"CCCC(c1cc(C(C)(C)C)c(O)cc1C)c1cc(C(C)(C)C)c(O)cc1C [Structure 7, 4,4′-butylidenebis(2-t-butyl-5-methylphenol)]",do not exhibit appreciable estrogenic activity
5,"CC(C)(C)c1cc(Cc2cc(C(C)(C)C)c(O)c(C(C)(C)C)c2)cc(C(C)(C)C)c1O [Structure 8, 4,4′-methylenebis(2,6-di-t-butylphenol)]",do not exhibit appreciable estrogenic activity

# Tested on: MCF-7, clone WS8 cells
# Assay: MCF-7 cell proliferation assay of estrogenic activity
# Assay type: cell-based, human
# Conditions: log10 of Relative Proliferative Effect (EC50 ratio versus 17-beta estradiol times 100); b102 calls the values expected or measured
# Excerpt: The MCF-7 assay is a useful test for assessing whether a polyhydric phenol compound is appreciably non-estrogenic. The MCF-7 assay uses MCF-7, clone WS8 cells to measure whether and to what extent a substance induces cell proliferation via estrogen receptor (ER)-mediated pathways. The method is described in “Test Method Nomination: MCF-7 Cell Proliferation Assay of Estrogenic Activity” submitted for validation by CertiChem, Inc. to the National Toxicology Program Interagency Center for the Evaluation of Alternative Toxicological Methods (NICEATM) on Jan. 19, 2006 (available online at iccvam.niehs.nih.gov/methods/endocrine/endodocs/SubmDoc.pdf).
# A brief summary of the method of the aforementioned MCF-7 assay is provided below. MCF-7, clone WS8 cells are maintained at 37° C. in RMPI (Roswell Park Memorial Institute medium) containing Phenol Red (e.g., GIBCO Catalog Number 11875119) and supplemented with the indicated additives for routine culture. An aliquot of cells maintained at 37° C. are grown for two days in phenol-free media containing 5% charcoal stripped fetal bovine serum in a 25 cm^2 tissue culture flask. Using a robotic dispenser such as an EPMOTION™ 5070 unit, MCF-7 cells are then seeded at 400 cells per well in 0.2 ml of hormone-free culture medium in Corning 96-well plates. The cells are adapted for 3 days in the hormone-free culture medium prior to adding the chemical to be assayed for estrogenic activity. The media containing the test chemical is replaced daily for 6 days. At the end of the 7 day exposure to the test chemical, the media is removed, the wells are washed once with 0.2 ml of HBSS (Hanks' Balanced Salt Solution), and then assayed to quantify amounts of DNA per well using a micro-plate modification of the Burton diphenylamine (DPA) assay, which is used to calculate the level of cell proliferation.
# RPE is the ratio between the EC50 of the test chemical and the EC50 of the control substance 17-beta estradiol times 100, where EC50 is “effective concentration 50%” or half-maximum stimulation concentration for cell proliferation measured as total DNA in the MCF-7 assay.
row,SMILES,Log RPE
1,C[C@]12CC[C@@H]3c4ccc(O)cc4CC[C@H]3[C@@H]1CC[C@@H]2O [17β-estradiol],2.00
2,O=S(=O)(c1ccc(O)cc1)c1ccc(O)cc1 [Bisphenol S],−2
3,Oc1ccc(Cc2ccc(O)cc2)cc1 [Bisphenol F],−2
4,Oc1ccccc1Cc1ccccc1O [Structure 11],less than −4
5,CC(C)(C)c1cc(O)c(C(C)(C)C)cc1O [Structure 12],less than −4
